The text below walks through data of the NIST ThermoML archive (doi:10.1016/j.jct.2012.11.011).

For this data set the following is noted: Liquid, Vibrating tube method.

± gives the expanded uncertainty stated by the source.

As for `COC(=O)OC` [dimethyl carbonate], the mass density (commonly mass per unit of volume) is 1076.5 ± 0.4 kg/m3 (288.15 K, 100 kPa); 1080.6 ± 0.4 kg/m3 (288.15 K, 5000 kPa); 1084.8 ± 0.4 kg/m3 (288.15 K, 10000 kPa); 1092.8 ± 0.4 kg/m3 (288.15 K, 20000 kPa); 1100.3 ± 0.5 kg/m3 (288.15 K, 30000 kPa); 1107.5 ± 0.5 kg/m3 (288.15 K, 40000 kPa). The mass density reads like this: (298.15 K, 100 kPa) 1062.9 ± 0.4 kg/m3; (298.15 K, 5000 kPa) 1068 ± 0.4 kg/m3; (298.15 K, 10000 kPa) 1072.1 ± 0.4 kg/m3; (298.15 K, 20000 kPa) 1080.5 ± 0.4 kg/m3; (298.15 K, 30000 kPa) 1088.5 ± 0.4 kg/m3; (298.15 K, 40000 kPa) 1095.9 ± 0.5 kg/m3. The mass density was 1049.4 ± 0.3 kg/m3 (308.15 K, 100 kPa); 1054.6 ± 0.4 kg/m3 (308.15 K, 5000 kPa); 1059.4 ± 0.4 kg/m3 (308.15 K, 10000 kPa); 1068.3 ± 0.4 kg/m3 (308.15 K, 20000 kPa); 1076.7 ± 0.4 kg/m3 (308.15 K, 30000 kPa); 1084.5 ± 0.5 kg/m3 (308.15 K, 40000 kPa).

Regarding `CCCCCCCCCC` [decane], the mass density is recorded as 733.6 ± 0.3 kg/m3 (288.15 K, 100 kPa); 737.2 ± 0.3 kg/m3 (288.15 K, 5000 kPa); 740.7 ± 0.4 kg/m3 (288.15 K, 10000 kPa); 747.2 ± 0.5 kg/m3 (288.15 K, 20000 kPa); 753.2 ± 0.5 kg/m3 (288.15 K, 30000 kPa); 758.9 ± 0.6 kg/m3 (288.15 K, 40000 kPa). In addition, the mass density (298.15 K, 100 kPa) was determined as 726 ± 0.3 kg/m3; the mass density (298.15 K, 5000 kPa) turned out to be 730.2 ± 0.3 kg/m3; the mass density (298.15 K, 10000 kPa) amounted to 733.5 ± 0.4 kg/m3; the mass density (298.15 K, 20000 kPa) turned out to be 740.3 ± 0.5 kg/m3; the mass density (298.15 K, 30000 kPa) was 746.5 ± 0.5 kg/m3; the mass density (298.15 K, 40000 kPa) was determined as 752.2 ± 0.6 kg/m3. Besides, the mass density by setting is: (308.15 K, 100 kPa) 718.3 ± 0.3 kg/m3; (308.15 K, 5000 kPa) 722.4 ± 0.3 kg/m3; (308.15 K, 10000 kPa) 726.2 ± 0.4 kg/m3; (308.15 K, 20000 kPa) 733.4 ± 0.5 kg/m3; (308.15 K, 30000 kPa) 740 ± 0.5 kg/m3; (308.15 K, 40000 kPa) 745.9 ± 0.6 kg/m3.

Turning to `CCCCCCCC` [octane], the mass density (288.15 K, 100 kPa) is reported as 706.6 ± 0.3 kg/m3; the mass density (288.15 K, 5000 kPa) turned out to be 710.9 ± 0.4 kg/m3; the mass density (288.15 K, 10000 kPa) was 714.7 ± 0.4 kg/m3; the mass density (288.15 K, 20000 kPa) stood at 721.7 ± 0.5 kg/m3; the mass density (288.15 K, 30000 kPa) came out at 728.1 ± 0.6 kg/m3; the mass density (288.15 K, 40000 kPa) is 734.3 ± 0.7 kg/m3. Further, the mass density is recorded as 698.6 ± 0.3 kg/m3 (298.15 K, 100 kPa); 703.4 ± 0.4 kg/m3 (298.15 K, 5000 kPa); 707 ± 0.4 kg/m3 (298.15 K, 10000 kPa); 714.6 ± 0.5 kg/m3 (298.15 K, 20000 kPa); 721.4 ± 0.6 kg/m3 (298.15 K, 30000 kPa); 727.7 ± 0.7 kg/m3 (298.15 K, 40000 kPa). For the same compound, the mass density (308.15 K, 100 kPa) was determined as 690.5 ± 0.3 kg/m3; the mass density (308.15 K, 5000 kPa) is given as 695 ± 0.4 kg/m3; the mass density (308.15 K, 10000 kPa) was found to be 699.4 ± 0.4 kg/m3; the mass density (308.15 K, 20000 kPa) stood at 707.3 ± 0.5 kg/m3; the mass density (308.15 K, 30000 kPa) is 714.5 ± 0.6 kg/m3; the mass density (308.15 K, 40000 kPa) amounted to 720.8 ± 0.7 kg/m3.

Take `CCOC(=O)OCC` [diethyl carbonate]: the mass density by setting is: (288.15 K, 100 kPa) 980.3 ± 0.2 kg/m3; (288.15 K, 5000 kPa) 984.5 ± 0.2 kg/m3; (288.15 K, 10000 kPa) 988.6 ± 0.2 kg/m3; (288.15 K, 20000 kPa) 996.3 ± 0.2 kg/m3; (288.15 K, 30000 kPa) 1003.6 ± 0.2 kg/m3; (288.15 K, 40000 kPa) 1010.5 ± 0.2 kg/m3. The mass density (298.15 K, 100 kPa) is on record as 968.9 ± 0.3 kg/m3; the mass density (298.15 K, 5000 kPa) turned out to be 973.8 ± 0.3 kg/m3; the mass density (298.15 K, 10000 kPa) worked out at 977.8 ± 0.2 kg/m3; the mass density (298.15 K, 20000 kPa) is listed as 986 ± 0.2 kg/m3; the mass density (298.15 K, 30000 kPa) is 993.6 ± 0.2 kg/m3; the mass density (298.15 K, 40000 kPa) was 1000.8 ± 0.2 kg/m3. The mass density was found to be 957.7 ± 0.3 kg/m3 (308.15 K, 100 kPa); 962.4 ± 0.3 kg/m3 (308.15 K, 5000 kPa); 967.1 ± 0.3 kg/m3 (308.15 K, 10000 kPa); 975.7 ± 0.3 kg/m3 (308.15 K, 20000 kPa); 983.8 ± 0.2 kg/m3 (308.15 K, 30000 kPa); 991.3 ± 0.2 kg/m3 (308.15 K, 40000 kPa).
